Source: patent US5126337A, “Thiazetoquinoline-3-carboxylic acid derivative and a pharmaceutical composition comprising the same” (priority 1989, dated 1992)
Converted amounts (≈) assume the structure as drawn.

Legend:
[1] = test system: Enterobacter cloacae HNR 1946; assay: Antibacterial spectrum, MIC by twofold agar dilution method; format: cell-based; conditions: HNR1946, 10^6 cfu/ml, clinically isolated strain, Gram -, 18 hrs at 37° C
Description: (§1) Overnight cultures in Mueller-Hinton broth were suspended by buffered saline gelatin. One loopful of the bacterial suspension (10^6 or 10^8 colony-forming units/ml) was incubated onto the plates containing test compounds. The plates were incubated for 18 hrs at 37° C. The MIC was defined by the lowest concentration of the drug that inhibited visible growth of bacteria.

[2] = test system: Enterobacter cloacae HNR 1939; assay: as above; format: cell-based; conditions: HNR1939, 10^6 cfu/ml, clinically isolated strain, Gram -, 18 hrs at 37° C
Description: as §1

[3] = test system: Enterococcus faecalis HPC 948; assay: as above; format: cell-based; conditions: HPC948, 10^6 cfu/ml, clinically isolated strain, Gram +, 18 hrs at 37° C
Description: as §1

[4] = test system: Enterococcus faecalis HPC 984; assay: as above; format: cell-based; conditions: HPC984, 10^6 cfu/ml, clinically isolated strain, Gram +, 18 hrs at 37° C
Description: as §1

[5] = test system: Klebsiella pneumoniae HNR 828; assay: as above; format: cell-based; conditions: HNR828, 10^6 cfu/ml, clinically isolated strain, Gram -, 18 hrs at 37° C
Description: as §1

[6] = test system: Serratia marcescens HNR 1792; assay: as above; format: cell-based; conditions: HNR1792, 10^6 cfu/ml, clinically isolated strain, Gram -, 18 hrs at 37° C
Description: as §1

[7] = test system: Serratia marcescens HNR 1544; assay: as above; format: cell-based; conditions: HNR1544, 10^6 cfu/ml, clinically isolated strain, Gram -, 18 hrs at 37° C
Description: as §1

[8] = test system: Klebsiella pneumoniae HNR 858; assay: as above; format: cell-based; conditions: HNR858, 10^6 cfu/ml, clinically isolated strain, Gram -, 18 hrs at 37° C
Description: as §1

[9] = test system: Acinetobacter calcoaceticus HNR 904; assay: as above; format: cell-based; conditions: HNR904, 10^6 cfu/ml, clinically isolated strain, Gram -, 18 hrs at 37° C
Description: as §1

[10] = test system: Klebsiella pneumoniae HNR 869; assay: as above; format: cell-based; conditions: HNR869, 10^6 cfu/ml, clinically isolated strain, Gram -, 18 hrs at 37° C
Description: as §1

[11] = test system: Staphylococcuss aureus HPC 527; assay: as above; format: cell-based; conditions: 10^6 cfu/ml; clinically isolated strain, Gram +; 18 hrs at 37° C
Description: as §1

[12] = test system: Acinetobacter calcoaceticus HNR 916; assay: as above; format: cell-based; conditions: HNR916, 10^6 cfu/ml, clinically isolated strain, Gram -, 18 hrs at 37° C
Description: as §1

[13] = test system: Escherichia coli NIHJ JC-2; assay: as above; format: cell-based; conditions: NIHJJC2, 10^6 cfu/ml, standard laboratory strain, Gram -, 18 hrs at 37° C
Description: as §1

[14] = test system: Pseudomonas aeruginosa HNR 1472; assay: as above; format: cell-based; conditions: HNR1472, 10^6 cfu/ml, clinically isolated strain, Gram -, 18 hrs at 37° C
Description: as §1

[15] = test system: Serratia marcescens HNR 1767; assay: as above; format: cell-based; conditions: HNR1767, 10^6 cfu/ml, clinically isolated strain, Gram -, 18 hrs at 37° C
Description: as §1

[16] = test system: Enterococcus faecalis HPC 975; assay: as above; format: cell-based; conditions: HPC975, 10^6 cfu/ml, clinically isolated strain, Gram +, 18 hrs at 37° C
Description: as §1

[17] = test system: Acinetobacter calcoaceticus HNR 939; assay: as above; format: cell-based; conditions: HNR939, 10^6 cfu/ml, clinically isolated strain, Gram -, 18 hrs at 37° C
Description: as §1

[18] = test system: Pseudomonas aeruginosa HNR 1537; assay: as above; format: cell-based; conditions: HNR1537, 10^6 cfu/ml, clinically isolated strain, Gram -, 18 hrs at 37° C
Description: as §1

Enterobacter cloacae 963 = assay: as above; format: cell-based; conditions: 10^6 cfu/ml, standard laboratory strain, Gram -, 18 hrs at 37° C
Description: as §1

[19] = test system: Pseudomonas aeruginosa IFO 3445; assay: as above; format: cell-based; conditions: IFO3445, 10^6 cfu/ml, standard laboratory strain, Gram -, 18 hrs at 37° C
Description: as §1

[20] = test system: Serratia marcescens IAM 1184; assay: as above; format: cell-based; conditions: IAM1184, 10^6 cfu/ml, standard laboratory strain, Gram -, 18 hrs at 37° C
Description: as §1

[21] = test system: Staphylococuss aureus FDA 209PJC-1; assay: as above; format: cell-based; conditions: 10^6 cfu/ml; standard laboratory strain, Gram +; 18 hrs at 37° C
Description: as §1

[22] = test system: Staphylococcuss aureus HPC 292; assay: as above; format: cell-based; conditions: 10^6 cfu/ml; clinically isolated strain, Gram +; 18 hrs at 37° C; read-out: MIC
Description: as §1

[23] = test system: Pseudomonas aeruginosa HNR 1489; assay: as above; format: cell-based; conditions: HNR1489, 10^6 cfu/ml, clinically isolated strain, Gram -, 18 hrs at 37° C
Description: as §1

[24] = test system: Klebsiella pneumoniae PCI-602; assay: as above; format: cell-based; conditions: PCI602, 10^6 cfu/ml, standard laboratory strain, Gram -, 18 hrs at 37° C, read-out: MIC
Description: Minimum inhibitory concentrations (MIC) of test compounds were determined by the twofold agar dilution method (Chemotherapy, 29(1), 76(1981)). Overnight cultures in Mueller-Hinton broth were suspended by buffered saline gelatin. One loopful of the bacterial suspension (10^6 or 10^8 colony-forming units/ml) was incubated onto the plates containing test compounds. The plates were incubated for 18 hrs at 37° C. The MIC was defined by the lowest concentration of the drug that inhibited visible growth of bacteria.

Male mice of ddY strain [25] = assay: Convulsion inducing activity in combination with fenbufen; conditions: 30 min after fenbufen 100 mg/kg orally
Description: Male mice of ddY strain, 5 weeks old, were used. Fenbufen suspended in 0.5% carboxymethyl cellulose was administered orally at a dose of 100 mg/kg. After thirty minutes, test compounds suspended in 0.5% carboxymethyl cellulose were injected intraperitoneally (i.p.) at a dose of 100 mg/kg or 300 mg/kg.

Male mice of ddY strain [26] = assay: Acute toxicity (i.v.); format: in vivo; conditions: 270 mg/kg (i.v.)
Description: Male mice of ddY strain, 4 weeks old, were used. Test compounds were solved in 0.1N--NaOH solution and neutralized with 0.1N--HCl solution. Each compound was administered intravenously (i.v.) at a dose of 270 mg/kg. […]

[27] = test system: Enterobacter cloacae HNR 1941; assay: Antibacterial spectrum, MIC by twofold agar dilution method; format: cell-based; conditions: HNR1941, 10^6 cfu/ml, clinically isolated strain, Gram -, 18 hrs at 37° C
Description: as §1

[28] = test system: Staphylococcuss aureus HPC 308; assay: as above; format: cell-based; conditions: 10^6 cfu/ml; clinically isolated strain, Gram +; 18 hrs at 37° C
Description: as §1

CC1Sc2c(C(=O)O)c(=O)c3cc(F)c(N4CC[C@H](N)C4)c(F)c3n21 (single isomer, unassigned) [Example 27]
MIC [1]: 0.2 µg/mL (≈ 0.544 µM) | MIC [2]: 0.2 µg/mL (≈ 0.544 µM) | MIC [3]: 0.78 µg/mL (≈ 2.12 µM) | MIC [4]: 0.2 µg/mL (≈ 0.544 µM) | MIC [5]: 1.56 µg/mL (≈ 4.25 µM) | MIC [6]: 1.56 µg/mL (≈ 4.25 µM) | MIC [7]: 0.05 µg/mL (≈ 0.136 µM) | MIC [8]: 0.2 µg/mL (≈ 0.544 µM) | MIC [9]: 25 µg/mL (≈ 68 µM) | MIC [10]: 0.78 µg/mL (≈ 2.12 µM) | MIC [11]: 0.05 µg/mL (≈ 0.136 µM) | MIC [12]: 0.1 µg/mL (≈ 0.272 µM) | MIC [13]: 0.025 µg/mL (≈ 0.068 µM) | MIC [14]: 3.13 µg/mL (≈ 8.52 µM) | MIC [15]: 6.25 µg/mL (≈ 17 µM) | MIC [16]: 6.25 µg/mL (≈ 17 µM) | MIC [17]: 1.56 µg/mL (≈ 4.25 µM) | MIC [18]: 6.25 µg/mL (≈ 17 µM) | MIC (Enterobacter cloacae 963): 0.05 µg/mL (≈ 0.136 µM) | MIC [19]: 0.1 µg/mL (≈ 0.272 µM) | MIC [20]: 0.05 µg/mL (≈ 0.136 µM) | MIC [21]: 0.025 µg/mL (≈ 0.068 µM) | MIC [22]: 6.25 µg/mL (≈ 17 µM) | MIC [23]: 0.1 µg/mL (≈ 0.272 µM) | MIC [24]: ≤ 0.003 µg/mL | Number of convulsion induced/Number of animals (Male mice of ddY strain [25]; 100 mg/kg (i.p.)): 0/6 | Number of convulsion induced/Number of animals (Male mice of ddY strain [25]; 300 mg/kg (i.p.)): 0/6 | Number of death/Number of animals (Male mice of ddY strain [26]): 4/10

CC1Sc2c(C(=O)O)c(=O)c3cc(F)c(N4CC[C@H](N)C4)c(Cl)c3n21 (single isomer, unassigned) [Example 29]
MIC [1]: 0.2 µg/mL (≈ 0.521 µM) | MIC [2]: 0.2 µg/mL (≈ 0.521 µM) | MIC [3]: 0.78 µg/mL (≈ 2.03 µM) | MIC [4]: 0.2 µg/mL (≈ 0.521 µM) | MIC [5]: 1.56 µg/mL (≈ 4.06 µM) | MIC [6]: 0.78 µg/mL (≈ 2.03 µM) | MIC [27]: 1.56 µg/mL (≈ 4.06 µM) | MIC [7]: 0.05 µg/mL (≈ 0.13 µM) | MIC [8]: 0.2 µg/mL (≈ 0.521 µM) | MIC [10]: 0.39 µg/mL (≈ 1.02 µM) | MIC [11]: 0.05 µg/mL (≈ 0.13 µM) | MIC [12]: 0.1 µg/mL (≈ 0.261 µM) | MIC [28]: 0.78 µg/mL (≈ 2.03 µM) | MIC [13]: 0.025 µg/mL (≈ 0.0651 µM) | MIC [14]: 3.13 µg/mL (≈ 8.15 µM) | MIC [15]: 3.13 µg/mL (≈ 8.15 µM) | MIC [16]: 6.25 µg/mL (≈ 16.3 µM) | MIC [17]: 1.56 µg/mL (≈ 4.06 µM) | MIC [18]: 3.13 µg/mL (≈ 8.15 µM) | MIC (Enterobacter cloacae 963): 0.025 µg/mL (≈ 0.0651 µM) | MIC [19]: 0.1 µg/mL (≈ 0.261 µM) | MIC [20]: 0.1 µg/mL (≈ 0.261 µM) | MIC [21]: 0.05 µg/mL (≈ 0.13 µM) | MIC [22]: 6.25 µg/mL (≈ 16.3 µM) | MIC [23]: 0.2 µg/mL (≈ 0.521 µM) | Number of convulsion induced/Number of animals (Male mice of ddY strain [25]; 100 mg/kg (i.p.)): 0/6 | Number of convulsion induced/Number of animals (Male mice of ddY strain [25]; 300 mg/kg (i.p.)): 0/6 | Number of death/Number of animals (Male mice of ddY strain [26]): 3/10
